{
  "source": "patent US20230121771A1",
  "about": "“A PHARMACEUTICAL COMBINATION OF AN ARTEMISININ COMPOUND, 5-AMINOLEVULINIC ACID OR METHYL-5-AMINOLEVULINIC ACID AND A CHEMOTHERAPEUTIC AGENT” (JLP Health GmbH, priority 2020, published 2023)",
  "key": {"[1]": {"test_system": "human glioblastoma-like neoplastic organoid model", "assay": "Compound profiling in human glioblastoma-like neoplastic organoid model (p53, NF1, PTEN mutated)", "type": "cell-based", "details": "compound alone", "experimental": "Tumor initiation was induced by either oncogene amplification, using a Sleeping Beauty (SB) transposase, or mutation of tumor suppressor genes, using the CRISPR-Cas9 system in day 10 old embryoid bodies (EBs). Plasmids carrying the transposase as well as GFP and the desired oncogenes or expressing Cas9 nuclease were introduced by electroporation. In brief, a mixture of 1 μg DNA and 100 μl nucleofector solution was added to 10 EBs and transferred to a nucleofection cuvette. The Lonza Nucleofector 2b and the A-023 program were used for electroporation/ nucleofection. […] Cerebral tumor organoids were treated with different compounds and the survival and growth of transformed as well as untransformed neurons was monitored. Fluorescence labeling of tumor cells allowed clear distinguishability of transformed cells as compared to non-labeled throughout the experiment using brightfield microscopy, as well as fluorescence imaging. The transformed tumor tissue and untransformed neurons within the same organoid was monitored using fluorescence imaging, as well as brightfield microscopy throughout the experiment. At the endpoint of the treatment (d5 or d7 respectively), the number of GFP-positive cells was assessed by flow cytometry. […] Brightfield and green fluorescence images were taken from the same area. […]"}, "[2]": {"test_system": "neuroblastoma cells (SHSY5Y), Jurkat cells", "assay": "Cell survival by automated cell counting in SHSY5Y and Jurkat cells", "type": "cell-based", "details": "artemisinin 0.5 µM, 5-ALA 0.25 mM", "experimental": "(§1) For dosage responses, cells were seeded in 96-wells (25.000/ 96-well, in triplicate -where indicated) and subjected to compounds for 48 h. Cell viability was assessed using automated cell counting (high-throughput flow cytometry), Alamar Blue staining (Invitrogen, DAL1100) or CellTiter-Glo Luminescent Assay (Promega, G7570, according to the manufacturer’s protocol) respectively."}, "glioblastoma cell lines": {"test_system": "glioblastoma cell lines", "assay": "6-day cell survival assay (Cell Titer Glo 2.0), glioblastoma cell lines", "type": "cell-based", "details": "6-day treatment", "experimental": "Cell survival assays (FIGS. 12-19) were performed in 96-well plates in technical duplicates. Treatments started 24 hours post cell plating and lasted for 6-days prior to cell viability assessment with the Cell Titer Glo 2.0 Luminescent assay (Promega, G9242)."}, "[3]": {"test_system": "Myc overexpressing tumor organoids", "assay": "ROS/DHE staining of dissociated CNS-PNET tumor organoids", "type": "cell-based, human", "details": "especially in GFP-positive cancer cells", "experimental": "Treated cells were collected, washed with 1x HBSS (without Ca2+ and Mg2+), incubated with 1mM DHE (Dihydroethidium (Hydroethidine), Invitrogen, D11347) in 1x HBSS for 45 min at 37° C., washed twice and counterstained with DAPI or a viability dye (eBioscience™ Fixable Viability Dye eFluor™ 780, 65-0865-18) for 10 min on ice. Cells were then collected, strained and analysed using flow cytometry for DHE in the red fluorescent spectrum (PE channel).\nCerebral (tumor) organoids were enzymatically and mechanically dissociated using 1x trypsin, 35-45 min incubation at 37° C., and gentle shaking. Organoids were singularised by careful resuspension, addition of differentiation medium and straining (Falcon Round-Bottom Tubes with Cell Strainer Cap, 5 mL, 35 µm nylon mesh cell strainer snap cap). Single cells in suspension were counterstained with DAPI or a viability dye (eBioscience™ Fixable Viability Dye eFluor™ 780, 65-0865-18), and analysed using flow cytometry (BD LSRFortessa HTS Cell Analyzer). The amounts of GFP-positive cells were analyzed."}, "mouse ESCs": {"test_system": "mouse ESCs", "assay": "Cell survival of artemisinin treated mouse embryonic stem cells (Alamar Blue, 48 h)", "type": "cell-based", "details": "artemisinin combined with acifluorfen or 5-ALA (0.5 mM)", "experimental": "as §1"}},
  "data": [
    {"smiles": "NCC(=O)CCC(=O)O", "note": "[5-ALA, 5-amino-4-oxopentanoic acid]", "values": [
      {"measurement": "survival of untransformed and transformed cells", "setting": "[1]", "result": "little effect on the survival of untransformed cells as well as transformed cells"},
      {"measurement": "cell viability / cell death", "setting": "[2]", "result": "slightly reduced cell viability"},
      {"measurement": "cell survival compared to untreated controls", "setting": "glioblastoma cell lines", "result": "more potent than Methyl-5-ALA"},
      {"measurement": "ROS levels (DHE staining, FACS)", "setting": "[3]", "result": "slightly induced ROS production"},
      {"measurement": "susceptibility to artemisinin (cell survival)", "setting": "mouse ESCs", "result": "increased the sensitivity to the anti-malarial compound"}
    ]}
  ]
}
